Reference: patent US8952024B2, “Herbicidal pyrimidone derivatives” (E I du Pont de Nemours and Company, priority 2009, dated 2015)

Columns and labels:
Test in all cases: Test B pre-/postemergence plant response
Type in all cases: in vivo
[1] = test system: Italian ryegrass (Lolium multiflorum)
Summary of the method: (§1)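 Visual injury, 0–100 scale (100 = complete control), rated against controls after 13 to 15 days in greenhouse. Pre-emergence: seeds in loam/sand soil, treated at planting. Post-emergence: 1- to 4-leaf plants (2 to 18 cm) in peat/vermiculite medium. Compounds formulated in non-phytotoxic solvent with surfactant.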

[2] = test system: Surinam grass (Brachiaria decumbens)
Summary of the method: as §1

[3] = test system: downy bromegrass (Bromus tectorum)
Summary of the method: as §1

[4] = test system: goosegrass (Eleusine indica)
Summary of the method: as §1

[5] = test system: green foxtail (Setaria viridis)
Summary of the method: as §1

[6] = test system: lambsquarters (Chenopodium album)
Summary of the method: as §1

[7] = test system: large crabgrass (Digitaria sanguinalis)
Summary of the method: as §1

[8] = test system: pigweed (Amaranthus retroflexus)
Summary of the method: as §1

[9] = test system: ragweed (common ragweed, Ambrosia elatior)
Summary of the method: as §1

[10] = test system: velvetleaf (Abutilon theophrasti)
Summary of the method: as §1

[11] = test system: wheat (Triticum aestivum)
Summary of the method: as §1

[12] = test system: woolly cupgrass (Eriochloa villosa)
Summary of the method: as §1

[13] = test system: yellow nutsedge (Cyperus esculentus)
Summary of the method: as §1

[14] = 250 g ai/ha, Preemergence, 0 to 100 scale
[15] = Postemergence, 62 g ai/ha, scale 0 (no effect) to 100 (complete control), 13 to 15 days
[16] = Postemergence, 125 g ai/ha, visual rating after 13 to 15 days, scale 0 (no effect) to 100 (complete control)
[17] = Preemergence, 31 g ai/ha, scale 0 to 100 (0 no effect, 100 complete control)
[18] = Preemergence, 62 g ai/ha, scale 0 to 100 (0 no effect, 100 complete control)
[19] = Preemergence, 125 g ai/ha, 0 to 100 scale
[20] = Postemergence, 31 g ai/ha, scale 0 to 100 (0 no effect, 100 complete control)
[21] = Postemergence, 250 g ai/ha, scale 0 to 100

Which results are given for `Cc1cc(C)cc(-n2c(-c3ccccc3)ncc(C(=O)C3=C(O)CCCC3=O)c2=O)c1` [Compound 33]?
Plant response rating, Ryegrass, Italian [1, 14]: 5; Plant response rating, Ryegrass, Italian [1, 15]: 10; Plant response rating, Ryegrass, Italian [1, 16]: 40; Plant response rating, Ryegrass, Italian [1, 17]: 0; Plant response rating, Ryegrass, Italian [1, 18]: 0; Ryegrass, Italian plant response rating [1, 19]: 5; Plant response rating, Surinam Grass [2, 14]: 100; Plant response rating, Surinam Grass [2, 15]: 65; Plant response rating, Surinam Grass [2, 16]: 75; Plant response rating, Surinam Grass [2, 17]: 0; Plant response rating, Surinam Grass [2, 18]: 65; Surinam Grass plant response rating [2, 19]: 95; Plant response rating, Bromegrass, Downy [3, 14]: 30; Plant response rating, Bromegrass, Downy [3, 20]: 5; Plant response rating, Bromegrass, Downy [3, 15]: 5; Plant response rating, Bromegrass, Downy [3, 16]: 10; Bromegrass, Downy plant response rating [3, 21]: 20; Plant response rating, Bromegrass, Downy [3, 17]: 0; Plant response rating, Bromegrass, Downy [3, 18]: 0; Bromegrass, Downy plant response rating [3, 19]: 5; Plant response rating, Goosegrass [4, 14]: 98; Plant response rating, Goosegrass [4, 15]: 75; Plant response rating, Goosegrass [4, 16]: 85; Goosegrass plant response rating [4, 21]: 85; Plant response rating, Goosegrass [4, 17]: 80; Goosegrass plant response rating [4, 19]: 90; Plant response rating, Foxtail, Green [5, 14]: 100; Plant response rating, Foxtail, Green [5, 20]: 50; Plant response rating, Foxtail, Green [5, 15]: 85; Plant response rating, Foxtail, Green [5, 16]: 90; Foxtail, Green plant response rating [5, 21]: 90; Plant response rating, Foxtail, Green [5, 17]: 0; Plant response rating, Foxtail, Green [5, 18]: 45; Foxtail, Green plant response rating [5, 19]: 100; Plant response rating, Lambsquarters [6, 14]: 100; Plant response rating, Lambsquarters [6, 15]: 98; Plant response rating, Lambsquarters [6, 16]: 98; Lambsquarters plant response rating [6, 21]: 100; Plant response rating, Lambsquarters [6, 17]: 98; Plant response rating, Lambsquarters [6, 18]: 100; Lambsquarters plant response rating [6, 19]: 100; Plant response rating, Crabgrass, Large [7, 14]: 100; Plant response rating, Crabgrass, Large [7, 20]: 75; Plant response rating, Crabgrass, Large [7, 15]: 85; Plant response rating, Crabgrass, Large [7, 16]: 90; Crabgrass, Large plant response rating [7, 21]: 98; Plant response rating, Crabgrass, Large [7, 17]: 85; Plant response rating, Crabgrass, Large [7, 18]: 98; Crabgrass, Large plant response rating [7, 19]: 100; Plant response rating, Pigweed [8, 14]: 100; Plant response rating, Pigweed [8, 15]: 95; Plant response rating, Pigweed [8, 16]: 98; Plant response rating, Pigweed [8, 17]: 100; Plant response rating, Pigweed [8, 18]: 100; Pigweed plant response rating [8, 19]: 100; Plant response rating, Ragweed [9, 14]: 100; Plant response rating, Ragweed [9, 15]: 95; Plant response rating, Ragweed [9, 16]: 98; Plant response rating, Ragweed [9, 17]: 80; Plant response rating, Ragweed [9, 18]: 85; Ragweed plant response rating [9, 19]: 100; Plant response rating, Velvetleaf [10, 14]: 100; Plant response rating, Velvetleaf [10, 15]: 90; Plant response rating, Velvetleaf [10, 16]: 98; Plant response rating, Velvetleaf [10, 17]: 80; Plant response rating, Velvetleaf [10, 18]: 90; Velvetleaf plant response rating [10, 19]: 100; Plant response rating, Wheat [11, 14]: 5; Plant response rating, Wheat [11, 15]: 0; Plant response rating, Wheat [11, 16]: 5; Plant response rating, Wheat [11, 17]: 0; Plant response rating, Wheat [11, 18]: 0; Wheat plant response rating [11, 19]: 0; Plant response rating, Cupgrass, Woolly [12, 14]: 85; Plant response rating, Cupgrass, Woolly [12, 20]: 65; Plant response rating, Cupgrass, Woolly [12, 15]: 65; Plant response rating, Cupgrass, Woolly [12, 16]: 70; Cupgrass, Woolly plant response rating [12, 21]: 90; Plant response rating, Cupgrass, Woolly [12, 17]: 10; Plant response rating, Cupgrass, Woolly [12, 18]: 50; Cupgrass, Woolly plant response rating [12, 19]: 60; Plant response rating, Nutsedge, Yellow [13, 14]: 90; Plant response rating, Nutsedge, Yellow [13, 15]: 50; Plant response rating, Nutsedge, Yellow [13, 16]: 75; Plant response rating, Nutsedge, Yellow [13, 17]: 0; Plant response rating, Nutsedge, Yellow [13, 18]: 45; Nutsedge, Yellow plant response rating [13, 19]: 70

`Cc1ccccc1-n1c(-c2cccc(Cl)c2)ncc(C(=O)C2=C(O)CCCC2=O)c1=O` [Compound 36] was tested. Which “Plant response rating, Ryegrass, Italian” value [1, 14] did it give?
The value was 0.

And the “Plant response rating, Ryegrass, Italian” value [1, 15]?
Its value is 5.

What about the “Plant response rating, Ryegrass, Italian” value [1, 16] of the same molecule?
The value was 10.

What about the “Plant response rating, Ryegrass, Italian” value [1, 17] of the same molecule?
Its value is 0.

And the “Ryegrass, Italian plant response rating” value [1, 19]?
The value was 0.

And the “Plant response rating, Surinam Grass” value [2, 14]?
Its value is 100.

And the “Plant response rating, Surinam Grass” value [2, 15]?
Its value is 85.

What about the “Plant response rating, Surinam Grass” value [2, 16] of the same molecule?
The value was 85.

What about the “Plant response rating, Surinam Grass” value [2, 17] of the same molecule?
The value was 70.

And the “Surinam Grass plant response rating” value [2, 19]?
Its value is 100.

And the “Plant response rating, Bromegrass, Downy” value [3, 14]?
The value was 10.

And the “Plant response rating, Bromegrass, Downy” value [3, 20]?
Its value is 30.

And the “Plant response rating, Bromegrass, Downy” value [3, 15]?
The value was 30.

What about the “Plant response rating, Bromegrass, Downy” value [3, 16] of the same molecule?
The value was 45.

And the “Bromegrass, Downy plant response rating” value [3, 21]?
Its value is 65.

And the “Plant response rating, Bromegrass, Downy” value [3, 17]?
Its value is 0.

And the “Plant response rating, Bromegrass, Downy” value [3, 18]?
Its value is 0.

And the “Bromegrass, Downy plant response rating” value [3, 19]?
Its value is 0.

And the “Plant response rating, Goosegrass” value [4, 14]?
The value was 100.

What about the “Plant response rating, Goosegrass” value [4, 15] of the same molecule?
The value was 85.

And the “Plant response rating, Goosegrass” value [4, 16]?
The value was 90.

And the “Goosegrass plant response rating” value [4, 21]?
Its value is 95.

What about the “Plant response rating, Goosegrass” value [4, 17] of the same molecule?
The value was 0.

What about the “Goosegrass plant response rating” value [4, 19] of the same molecule?
The value was 95.

And the “Plant response rating, Foxtail, Green” value [5, 14]?
The value was 85.

What about the “Plant response rating, Foxtail, Green” value [5, 20] of the same molecule?
The value was 85.

And the “Plant response rating, Foxtail, Green” value [5, 15]?
The value was 90.

And the “Plant response rating, Foxtail, Green” value [5, 16]?
Its value is 90.

What about the “Foxtail, Green plant response rating” value [5, 21] of the same molecule?
Its value is 90.

What about the “Plant response rating, Foxtail, Green” value [5, 17] of the same molecule?
The value was 35.

And the “Plant response rating, Foxtail, Green” value [5, 18]?
The value was 80.

And the “Foxtail, Green plant response rating” value [5, 19]?
The value was 85.

And the “Plant response rating, Lambsquarters” value [6, 14]?
Its value is 100.

What about the “Plant response rating, Lambsquarters” value [6, 15] of the same molecule?
Its value is 100.

What about the “Plant response rating, Lambsquarters” value [6, 16] of the same molecule?
The value was 100.

And the “Lambsquarters plant response rating” value [6, 21]?
The value was 100.

And the “Plant response rating, Lambsquarters” value [6, 17]?
Its value is 98.

What about the “Plant response rating, Lambsquarters” value [6, 18] of the same molecule?
Its value is 100.

What about the “Lambsquarters plant response rating” value [6, 19] of the same molecule?
The value was 100.

What about the “Plant response rating, Crabgrass, Large” value [7, 14] of the same molecule?
The value was 100.

And the “Plant response rating, Crabgrass, Large” value [7, 20]?
The value was 90.

What about the “Plant response rating, Crabgrass, Large” value [7, 15] of the same molecule?
Its value is 95.

What about the “Plant response rating, Crabgrass, Large” value [7, 16] of the same molecule?
Its value is 95.

And the “Crabgrass, Large plant response rating” value [7, 21]?
The value was 98.

And the “Plant response rating, Crabgrass, Large” value [7, 17]?
The value was 20.

And the “Plant response rating, Crabgrass, Large” value [7, 18]?
The value was 90.

What about the “Crabgrass, Large plant response rating” value [7, 19] of the same molecule?
Its value is 100.

And the “Plant response rating, Pigweed” value [8, 14]?
The value was 100.

What about the “Plant response rating, Pigweed” value [8, 15] of the same molecule?
The value was 85.

And the “Plant response rating, Pigweed” value [8, 16]?
Its value is 90.

What about the “Plant response rating, Pigweed” value [8, 17] of the same molecule?
Its value is 100.

What about the “Pigweed plant response rating” value [8, 19] of the same molecule?
Its value is 100.

What about the “Plant response rating, Ragweed” value [9, 14] of the same molecule?
The value was 90.

What about the “Plant response rating, Ragweed” value [9, 15] of the same molecule?
The value was 90.

And the “Plant response rating, Ragweed” value [9, 16]?
Its value is 95.

And the “Plant response rating, Ragweed” value [9, 17]?
The value was 35.

And the “Ragweed plant response rating” value [9, 19]?
The value was 85.

And the “Plant response rating, Velvetleaf” value [10, 14]?
The value was 100.

And the “Plant response rating, Velvetleaf” value [10, 15]?
Its value is 100.

And the “Plant response rating, Velvetleaf” value [10, 16]?
Its value is 100.

And the “Plant response rating, Velvetleaf” value [10, 17]?
Its value is 65.

And the “Velvetleaf plant response rating” value [10, 19]?
The value was 100.

And the “Plant response rating, Wheat” value [11, 14]?
The value was 0.

What about the “Plant response rating, Wheat” value [11, 15] of the same molecule?
The value was 5.

What about the “Plant response rating, Wheat” value [11, 16] of the same molecule?
The value was 5.

What about the “Plant response rating, Wheat” value [11, 17] of the same molecule?
The value was 0.

What about the “Wheat plant response rating” value [11, 19] of the same molecule?
Its value is 0.

What about the “Plant response rating, Cupgrass, Woolly” value [12, 14] of the same molecule?
The value was 65.

And the “Plant response rating, Cupgrass, Woolly” value [12, 20]?
The value was 85.

What about the “Plant response rating, Cupgrass, Woolly” value [12, 15] of the same molecule?
Its value is 90.

What about the “Plant response rating, Cupgrass, Woolly” value [12, 16] of the same molecule?
The value was 95.

What about the “Cupgrass, Woolly plant response rating” value [12, 21] of the same molecule?
The value was 98.

And the “Plant response rating, Cupgrass, Woolly” value [12, 17]?
The value was 0.

And the “Plant response rating, Cupgrass, Woolly” value [12, 18]?
Its value is 0.

And the “Cupgrass, Woolly plant response rating” value [12, 19]?
The value was 10.

What about the “Plant response rating, Nutsedge, Yellow” value [13, 14] of the same molecule?
The value was 75.

What about the “Plant response rating, Nutsedge, Yellow” value [13, 15] of the same molecule?
Its value is 20.

And the “Plant response rating, Nutsedge, Yellow” value [13, 16]?
Its value is 25.

And the “Plant response rating, Nutsedge, Yellow” value [13, 17]?
The value was 0.

And the “Nutsedge, Yellow plant response rating” value [13, 19]?
The value was 40.
